Experiments:
[1] = Chronic toxicity of suppositories: indexes of urine; format: in vivo, rats; conditions: rat, in vivo
Description: The experiments were conducted on inbred rats.

[2] = Chronic toxicity of suppositories: biochemical indexes of blood serum; format: in vivo, rats; conditions: rat, in vivo;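 also: inbred rats dosed rectally with softened suppositories, controls given matching volumes of sterile medical liquid paraffin, serum sampled one month into a two-month dosing course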
Description: Two doses of preparations used in the experiments: 50 mg/kg and 500 mg/kg. Before the administration, the suppositories were softened by heating in a glass water bath at a temperature of 38-39° C., the soft mass was collected in tuberculin syringe in a volume of 1 ml, a needle with oliva was attached to the syringe, and the preparatory mass was introduced into the rectum of the animal for a depth of 1.5-2.0 cm. The animals of the control group were administered with sterile medical liquid paraffin in a volume corresponding to the volume of the investigated suppository. A complete course of administration of drugs to the animals was two months. A complex of laboratory diagnostic investigations was carried out one month after the beginning of the administration of the preparation to the animal—in a middle of the course (8 animals), two months after ending the course (8 animals) and three months after ending the recovery period of one month (8 animals). The mass of the body of the rats in the first month of administration of the preparation was determined weekly, and then once in two weeks. On the basis of the dynamics of an index of the mass of the animal body, the volume of preparation being administered was corrected taking into account the test dose.

thrombocytes = experiment: ADP-induced aggregation of thrombocytes after intravenous administration (in vivo); set-up: species or system rabbit
Description: The experiments were carried out on male rabbits of the “Chinchilla” breed having a mass of 2.7±0.3 kg. 18-24 hours prior to the experiment they were deprived of feed while preserving free access to water.
To obtain plasma enriched with thrombocytes, blood was taken from a cut of a marginal vein of the rabbit ear, the sample was stabilized with 3.8% of sodium citrate solution in a ratio of 9:1 and centrifuged at 200 g (1000 rev/min) for 10 minutes. The top supernatant layer enriched with thrombocytes was transferred by an automatic dropper into a silicone test tube and kept at 37° C. The plasma enriched with thrombocytes contained, on the average, […]. If this content exceeded the specified 3×10^8 blood platelets in 1 liter, this sample was diluted to the necessary concentration with plasma deprived of thrombocytes, which was obtained by centrifuging blood at 650 g during 10 minutes.
The measurements of the optical density of the samples were made on two-channel aggregometer of the “Chronolog” Company (USA). A flask containing 490 mkl of plasma rich with thrombocytes was placed in a device, into which a magnetic agitator covered with Teflon was lowered. The index of maximum amplitude of aggregation (MA) in percent of a fall of the plasma optical density under effect of the aggregation inductor was recorded. The control index MA of plasma was compared with the MA of plasma incubated for 3 minutes with different concentrations of the compounds: from 10^−3 to 10^−7 in vitro experiments or with plasma obtained 15, 30, 60 and 120 minutes after intravenous administration of different doses of the compounds in vivo experiments.
The process of aggregation of thrombocytes was recorded with the help of a computer; on the monitor screen the there were depicted curves reflecting changes of the optical density of the plasma enriched which was taken as a standard 100% compared to the optical density of the non-thrombocyte plasma taken for 0% content of thrombocytes.
The antiaggregative capability of compounds 2, 15, 21, 37, according to the invention was tested in experiments in vivo. Introduced to the test animals intravenously were an aggregation inductor ADP at a concentration of 10^−5 M was and then the compounds according to the invention. The doses of the compounds were in a range from 15 to 60 mg/kg.
For leveling the different effects of the compounds in different days due the ambient temperature, humidity and other parameters, 2 animals of each series were taken for experiments every day. Under “series” there is understood a group of 6 animals used for studying one of the doses of the compounds.
The blood for obtaining plasma enriched with thrombocytes was taken from marginal vein of the rabbit ear: in the control group—directly before introducing the tested compounds; in investigated groups—15 minutes after introducing these compounds and then after 30, 60, 120 minutes and so on up to the moment when the effect of suppression of aggregation disappeared.
The quantity of thrombocytes was counted before the experiment and at the end thereof in each plasma sample.

[3] = 15.0 mg/kg intravenously, after 15 minutes, control 50.1 ± 1.7
[4] = 15.0 mg/kg intravenously, after 30 minutes, control 50.1 ± 1.7
[5] = 15.0 mg/kg intravenously, after 60 minutes, control 50.1 ± 1.7
[6] = 15.0 mg/kg intravenously, after 120 minutes, control 50.1 ± 1.7
[7] = 30.0 mg/kg intravenously, after 15 minutes, control 61.0 ± 1.3
[8] = 30.0 mg/kg intravenously, after 30 minutes, control 61.0 ± 1.3
[9] = 30.0 mg/kg intravenously, after 60 minutes, control 61.0 ± 1.3
[10] = 30.0 mg/kg intravenously, after 120 minutes, control 61.0 ± 1.3
[11] = 60.0 mg/kg intravenously, after 15 minutes, control 48.6 ± 1.3
[12] = 60.0 mg/kg intravenously, after 30 minutes, control 48.6 ± 1.3
[13] = 60.0 mg/kg intravenously, after 60 minutes, control 48.6 ± 1.3
[14] = 60.0 mg/kg intravenously, after 120 minutes, control 48.6 ± 1.3

Structure (SMILES): Nc1ccnc2c(=O)n([C@@H]3O[C@H](CO)[C@@H](O)[C@H]3O)[nH]c(=O)c12 [Compound 2, 4-amino-7-(β-D-ribofuranosile)pyrido[2,3-d]-6H-pyridazine-5,8-dione]
- Bilirubin (urine) ([1]; 50 mg/kg): <5 Mkmol/l
- Glucose (urine) ([1]; 50 mg/kg): <5 mmol/L
- Ketone bodies (urine) ([1]; 50 mg/kg): <1 mmol/L
- Potassium (urine) ([1]; 50 mg/kg): 5.78 ± 1.7 g/L
- Protein (urine) ([1]; 50 mg/kg): 0.69 ± 0.33 g/L
- Sodium (urine) ([1]; 50 mg/kg): 1.7 ± 0.3 g/L
- Urea (urine) ([1]; 50 mg/kg): 457 ± 144 mmol/L
- Urobilinogen (urine) ([1]; 50 mg/kg): <16 Mkmol/l
- pH (urine) ([1]; 50 mg/kg): 6.1 ± 0.3
- Bilirubin (urine) ([1]; 500 mg/kg): <5 Mkmol/l
- Glucose (urine) ([1]; 500 mg/kg): <5 mmol/L
- Ketone bodies (urine) ([1]; 500 mg/kg): <1 mmol/L
- Potassium (urine) ([1]; 500 mg/kg): 6.24 ± 1.8 g/L
- Protein (urine) ([1]; 500 mg/kg): 0.76 ± 0.31 g/L
- Sodium (urine) ([1]; 500 mg/kg): 1.27 ± 0.3 g/L
- Urea (urine) ([1]; 500 mg/kg): 492 ± 187 mmol/L
- Urobilinogen (urine) ([1]; 500 mg/kg): <16 Mkmol/l
- pH (urine) ([1]; 500 mg/kg): 6.2 ± 0.2
- ALT in blood serum ([2]; 50 mg/kg): 10.84 ± 2.02 unit/l
- AST in blood serum ([2]; 50 mg/kg): 20.41 ± 3.06 unit/1
- Alkalinous phosphatase in blood serum ([2]; 50 mg/kg): 42.12 ± 4.23 unit/l
- Bilirubin in blood serum ([2]; 50 mg/kg): 44.38 ± 4.12 mmol/L
- Cholesterol in blood serum ([2]; 50 mg/kg): 2.77 ± 0.71 mmol/L
- Creatinine in blood serum ([2]; 50 mg/kg): 47.38 ± 3.26 mkmol/l
- Glucose in blood serum ([2]; 50 mg/kg): 9.85 ± 0.37 mM
- Total protein in blood serum ([2]; 50 mg/kg): 87.34 ± 5.56 g/L
- Urea in blood serum ([2]; 50 mg/kg): 11.02 ± 0.73 Mkmol/l
- ALT in blood serum ([2]; 500 mg/kg): 11.23 ± 1.70 unit/l
- AST in blood serum ([2]; 500 mg/kg): 20.13 ± 2.95 unit/1
- Alkalinous phosphatase in blood serum ([2]; 500 mg/kg): 43.4 ± 2.12 unit/l
- Bilirubin in blood serum ([2]; 500 mg/kg): 42.56 ± 7.56 mmol/L
- Cholesterol in blood serum ([2]; 500 mg/kg): 2.96 ± 0.52 mmol/L
- Creatinine in blood serum ([2]; 500 mg/kg): 49.87 ± 8.12 mkmol/l
- Glucose in blood serum ([2]; 500 mg/kg): 10.2 ± 0.74 mM
- Total protein in blood serum ([2]; 500 mg/kg): 70.84 ± 7.47 g/L
- Urea in blood serum ([2]; 500 mg/kg): 11.30 ± 0.80 Mkmol/l
- MA - drop of optical density (thrombocytes; [3]): 44.2 ± 2.0 %
- MA - drop of optical density (thrombocytes; [4]): 42.2 ± 1.6 %
- MA - drop of optical density (thrombocytes; [5]): 46.9 ± 1.7 %
- MA - drop of optical density (thrombocytes; [6]): 49.2 ± 2.0%
- MA - drop of optical density (thrombocytes; [7]): 45.3 ± 2.0 %
- MA - drop of optical density (thrombocytes; [8]): 43.7 ± 1.7 %
- MA - drop of optical density (thrombocytes; [9]): 40.1 ± 2.2 %
- MA - drop of optical density (thrombocytes; [10]): 59.7 ± 2.2%
- MA - drop of optical density (thrombocytes; [11]): 45.2 ± 1.2 %
- MA - drop of optical density (thrombocytes; [12]): 43.6 ± 2.0 %
- MA - drop of optical density (thrombocytes; [13]): 47.8 ± 1.5%
- MA - drop of optical density (thrombocytes; [14]): 48.0 ± 1.2%

Structure (SMILES): Nc1cnc2c(=O)n([C@@H]3O[C@H](CO)[C@@H](O)[C@H]3O)[nH]c(=O)c2n1.[Na] [Compound 21, sodium salt of 3-amino-7-(β-D-ribofuranosile)pyrazine[2,3-d]-6H-pyridazine-5,8-dione]
- MA - drop of optical density (thrombocytes; [3]): 43.5 ± 1.7 %
- MA - drop of optical density (thrombocytes; [4]): 43.3 ± 1.7 %
- MA - drop of optical density (thrombocytes; [5]): 46.7 ± 1.5 %
- MA - drop of optical density (thrombocytes; [6]): 49.1 ± 1.7%
- MA - drop of optical density (thrombocytes; [7]): 46.7 ± 1.9 %
- MA - drop of optical density (thrombocytes; [8]): 45.4 ± 1.8 %
- MA - drop of optical density (thrombocytes; [9]): 45.0 ± 1.9%
- MA - drop of optical density (thrombocytes; [10]): 60.3 ± 2.1%
- MA - drop of optical density (thrombocytes; [11]): 45.1 ± 0.9 %
- MA - drop of optical density (thrombocytes; [12]): 43.2 ± 2.0 %
- MA - drop of optical density (thrombocytes; [13]): 47.3 ± 1.6%
- MA - drop of optical density (thrombocytes; [14]): 48.3 ± 1.5%
